The values that follow come from paper PMC4790320, “Purification of a Multidrug Resistance Transporter for Crystallization Studies” (Antibiotics, 2015).

In the test the target is T1, MdtM (Escherichia coli, UniProt P39386).
T1 construct: full ORF in modified pBAD/Myc-His A, decaHis tag removed with thrombin; expressed in E. coli LMG194; IMAC with ATP wash to remove chaperonin, SEC in DDM; ~45 kDa; monomer
The experiment in a line: intrinsic tryptophan fluorescence quenching. The test is classed as binding.

For orientation: Kd means the concentration at which binding is half-saturated. The low end stands for a tighter complex, the high end for a looser complex.

T1 sequence (P39386 whole entry): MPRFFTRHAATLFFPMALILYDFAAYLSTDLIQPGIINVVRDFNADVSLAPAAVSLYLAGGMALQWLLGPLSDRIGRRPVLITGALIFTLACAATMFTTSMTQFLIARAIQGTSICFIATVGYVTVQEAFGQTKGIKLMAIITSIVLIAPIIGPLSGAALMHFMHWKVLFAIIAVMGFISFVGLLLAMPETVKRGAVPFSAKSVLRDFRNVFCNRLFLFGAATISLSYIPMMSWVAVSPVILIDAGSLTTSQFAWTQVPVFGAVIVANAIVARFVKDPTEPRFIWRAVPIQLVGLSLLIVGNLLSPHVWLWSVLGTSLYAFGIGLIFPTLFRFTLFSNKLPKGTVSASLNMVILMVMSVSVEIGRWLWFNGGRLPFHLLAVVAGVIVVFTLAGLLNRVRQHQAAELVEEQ

Regarding `O=C(N[C@H](CO)[C@H](O)c1ccc([N+](=O)[O-])cc1)C(Cl)Cl` [chloramphenicol], the dissociation constant (Kd) amounted to 0.036 ± 0.003 µM.
